These results are taken from a melting point compilation (Tetko et al.; mined from patent text by program, amines drawn as free bases though some values may be those of a salt).

As usually defined, the melting point is the temperature, or range, at which the solid turns liquid.

Residues, ends and D or L forms follow the SMILES beside them. *: point of attachment. Boc = CC(C)(C)OC(=O)*; OBn = c1ccc(CO*)cc1; Bn = c1ccc(C*)cc1

On to `COc1ccc(NC(=O)c2cc(O[Si](C)(C)C(C)(C)C)ccc2NC(=O)c2ccc(C(C)(C)C)cc2)cc1`, for which the melting point amounted to 207 °C.
In turn, `O=c1[nH]ccn1CC#CCN1CCCC1` returned a melting point of 99 to 102 °C.
With `CC(=O)Nc1cc(C(C)(C)C)cc(OCc2ccccc2)c1C` the figure was 170 to 172 °C; with `Clc1ccc(-c2oncc2-c2ccncc2)cc1`, 121 °C; with `CCCC1Cc2cc(OCC(=O)O)c(Cl)c(Cl)c2C1=O` (centres undefined), 199 to 203 °C.
The result for `O=C(O)c1ccc(C23CC4CC(C2)CC(c2ccc(C(=O)O)cc2)(C4)C3)cc1` reads 304 to 306 °C; that for `CS(=O)C1(c2ccncc2)CNN=C1c1ccc(F)cc1` (centres undefined), 263 °C; that for `O=C(Nc1cccc2cc(Br)cnc12)C1c2ccccc2-c2ccccc21`, 196 to 198 °C.
For `COC(=O)c1cc(N)c(C(F)(F)F)cc1NC(C)=O`, the melting point is 143 to 152 °C.
For the compound `CC1(C)C(=O)N(c2ccc(C#N)c(C(F)(F)F)c2)C(=S)N1CCCO`, the melting point lay in the range of 149 to 150 °C.
Compound `CC(C)(O)C(=O)Nc1ccc(S(=O)(=O)c2ccccc2)cc1F` showed a melting point of 156 °C.
In the case of `NC(=O)c1ccc(F)c2c1CC(N(CCCc1c[nH]c3c(Cl)cccc13)C1CCC1)CO2` (centres undefined), the melting point lay in the range of 154 to 163 °C.
With `CC(C)(C)C(=O)ON1C(C)(C)CC(OC(=O)c2ccccc2)CC1(C)C` the figure was 107 to 110 °C; with `OC[C@H]1CC[C@H](c2ccc(F)cc2)CC1`, 65 to 70 °C; with `CCOC(=O)COc1cc(-c2ccc(C)cc2)nc2cccc(C(F)(F)F)c12`, 134 °C.
`O=C(/C=C/c1cccc(F)c1)NC1CC1` registered a melting point of 90 to 91 °C.
As to `CCCNC(=O)c1cnc2c(C)cccn2c1=O`, the melting point lay within 138 to 140 °C.
The result for `CCCn1ccc(=O)c(OC(=O)NCC(=O)OCC)c1C` reads 96 to 97 °C.
`CC(=O)NNC(=O)Nc1ccccc1-c1ccc(C)cc1` gave a melting point of 102 to 104 °C.
`CCOCc1nc2c(N)nc3ccccc3c2n1CC(C)(C)CS(N)(=O)=O`: the melting point is 229 to 231 °C.
Turning to `CC1(C)C=C(c2ccccn2)c2ccc(C#N)cc2OC1`, the melting point is 132 °C.
`COc1cc(N)c(Cl)cc1C(=O)NCC1CCN(CCCCCC(=O)c2cccs2)CC1` displayed a melting point of 115 to 118 °C.
For the compound `CNC(=S)n1ncnc1N`, the melting point is 184 to 185 °C.
In the case of `C=Cc1ccc(Nc2c(C(=O)NOCCO)ccc(F)c2F)c(F)c1`, the melting point was 134 to 137 °C.
The result for `CS(=O)(=O)c1ccc(-c2cnn(Cc3ccc4cc(F)ccc4n3)c(=O)c2-c2ccc(F)cc2)cc1` reads 116 to 119 °C; that for `Cc1ccc(C(=O)NC(NC(=O)Nc2ccccc2F)C(Cl)(Cl)Cl)cc1` (centres undefined), 257 to 259 °C; that for `FC(F)(F)c1ccnc(N2CCN(Cc3n[nH]c4ccccc34)CC2)c1`, 99 to 100 °C.
With `CC(C)(C)c1cc(-c2ccc(C(=O)O)c(C(C)(C)C)c2)ccc1O`, the melting point was > 240 °C.
`CC(NC(=O)C(Cc1ccc(OCc2ccccc2)cc1)NC(=O)OC(C)(C)C)C(=O)NCC(=O)OCc1ccccc1` (stereo not drawn) (Boc-Tyr(Bn)-Ala-Gly-OBn; configuration not given here) showed a melting point of 145 to 147 °C.
`Cc1cc2c(cc1S(=O)(=O)c1cc(Cl)cc(Cl)c1)OC(C(=O)O)O2` (centres undefined) showed a melting point of 210 to 214 °C.
`CC(C)(C)c1ccc(C(=O)Nc2ccc(OCC(=O)O)cc2)cc1` returned a melting point of 179 to 181 °C.
In turn, `Cc1c(CO)ncnc1N1CCOCC1` returned a melting point of 66 to 68 °C.
Compound `Cc1c(C#N)cc2ccc3c(c2c1Br)C(C)(C)C(=O)O3` came in with a melting point of 235 to 237 °C.
With `O=C(O)Cc1cc(C(=O)C=Cc2ccc(Cl)cc2Cl)ccc1O` the figure was 232 °C; with `NC(=O)CCc1ccc(Oc2ccc3c(c2)S(=O)(=O)N=C2CCCN23)cc1`, 178 to 183 °C; with `COc1ccc(CC(=O)Nc2c(-c3cc(Cl)ccc3O)c3cc(C(F)(F)F)ccc3[nH]c2=O)cc1`, 172 to 175 °C.
With `Cc1cccc(C(=O)C2=C(O)C(=O)N(c3ccc(C)nn3)C2c2ccc(C(C)C)cc2)c1` (centres undefined), the melting point was in the range of 245 to 250 °C.
The result for `COc1cn(-c2ccc(N3CC4(CC4)OC3=O)cc2F)nc(-c2ccnn2-c2ccccc2)c1=O` reads 200 to 201 °C; that for `COc1ccccc1C(c1cccc2ccccc12)C(C)(C#N)C#N` (centres undefined), 175 to 177 °C; that for `COP(=S)(OC)Oc1cc(-c2ccccc2)sc1C#N`, 95 °C.
The result for `O=C(OC[C@@H](O)[C@@H]1CC(c2ccc(-c3ccc(N4C[C@H](Cn5ccnn5)OC4=O)cc3F)cn2)=NO1)c1cccnc1` reads 210 °C; that for `Cc1cc(OC(=O)c2ccccc2)ccc1O`, 120 to 122 °C; that for `CCN(CC)C(=O)c1ccccc1-c1ccc(OC)cc1`, 46 to 47 °C.
Take `Cc1cccc(-c2nc(CCOc3ccc(C=CC=C4OC(=O)NC4=O)cc3)c(C)o2)c1`: the melting point fell in the range of 213 to 214 °C.
Regarding `Cc1cc(S)n2nc(CN=[N+]=[N-])nc2n1`, the melting point was in the range of 214 to 215 °C.
The compound `CN1CCCC1CCNC(=O)Cn1c(-c2ccc(Cl)cc2)nc2cccnc21` (centres undefined) yielded a melting point of 170 to 172 °C.
With `CC(C)(C)OC(=O)N1CCc2c(n(CCOc3ccccc3)c3cc(Cl)cc(Cl)c23)CC1`, the melting point was 132 to 133 °C.
As to `CCCNC(=O)COC1c2ccccc2C(=O)N1c1ccc2ccc(Cl)nc2n1` (centres undefined), the melting point turned out to be 167 °C.
Take `Cc1ccc(C2SC(=S)N(C(=O)NN3CCOCC3)C2C)cc1` (centres undefined): the melting point fell in the range of 101 to 103 °C.
Compound `O=C(COC1Cc2cccc(O)c2CC1OCC(=O)N1CCOCC1)N1CCOCC1` (centres undefined) showed a melting point of 68 to 77 °C.
The result for `Cc1oc2c(C(O)CN)cccc2c1C` (centres undefined) reads 73 °C; that for `O=[N+]([O-])c1c(NCCO)cc(NCCO)cc1NCCO`, 200 °C; that for `N#CCc1cc(Cl)nc(N)n1`, 110 to 115 °C.
With `CCOc1cc2c(cc1OC)C(c1ccc(-c3nnn(CC)n3)cc1)=N[C@H]1CCCC[C@@H]21` (racemic) the figure was 167 to 170 °C; with `CC(=O)c1ccc(-c2ccc(F)cc2F)c(F)c1`, 92 to 94 °C; with `C=C(C)c1cccc2c1nc(-c1c(F)cccc1F)n2Cc1c(F)cccc1F`, 156 to 158 °C.
For the compound `O=S(=O)(Nc1cccnc1Nc1ccccc1)c1cccc(Cl)c1`, the melting point was 143 to 144 °C.
`O=C(Cc1ccccc1)c1ccc(Cl)c(Cl)c1` gave a melting point of 84 to 85 °C.
The compound `OC1CCc2cccc(Nc3cc(-c4ccc(C(F)(F)F)cc4)ncn3)c2C1` (centres undefined) yielded a melting point of 178 to 179 °C.
`N[C@@H](CCCCNC(=O)NCc1ccccc1)C(=O)N1CC(F)(F)C(F)(F)C1` had a melting point of 89 to 92 °C.
`COc1cc(COc2nn(-c3ccccc3)cc2C=O)ccc1OCc1sc(-c2ccccc2)nc1C` returned a melting point of 171 to 172 °C.
The compound `COc1ccc(C2=NN(C3CCCCCCC3)C(=O)[C@H]3CC=CC[C@@H]23)cc1OC` (relative stereo) yielded a melting point of 75 to 77 °C.
For the compound `CC(C)(C#N)Cc1ccc2cc(CC(C)(C)C#N)ccc2c1`, the melting point is 178 to 180 °C.
`CSc1cccc(Cc2sc(NC(C)=O)nc2CO)c1` registered a melting point of 140 to 142 °C.
`O=C(c1ccccc1)c1cc2c3ccccc3[nH]c(=O)n2n1` showed a melting point of 308 to 311 °C.
As for `CC(C)(C)OC(=O)NCC1CCN(Cc2ccccc2)C1` (centres undefined), the melting point was 51 to 54 °C.
`CCCCCC(O)CCC1CCC(=O)C1CCCCC=CC(=O)O` (centres undefined) showed a melting point of 71 to 75 °C.
The result for `CCOC(=O)C1=C(C=O)NC(C(F)(F)F)=C(C(=O)OCC)C1c1cccc2nonc12` (centres undefined) reads 94 to 95 °C.
The result for `C=C(C)c1cccc(C(C)(C)N=C=O)c1` reads 60 to 62 °C.
Regarding `Cc1cc(C)cc(-c2nc(N)sc2-c2ccnc(OCc3ccccc3)c2)c1`, the melting point was in the range of 141 to 143 °C.
`OC[C@@H](O)CCc1ccc2ccccc2c1O` gave a melting point of 105 to 108 °C.
With `CC(C)c1cccc([N+](=O)[O-])c1C#N` the figure was 121 to 124 °C; with `COc1ccc(-c2csc(Nc3ncccn3)n2)cc1OC`, 225 to 228 °C.
In the case of `COc1c2ccccc2nc2c1c(C)nn2-c1ccccn1`, the melting point fell in the range of 44 to 47 °C.
On to `CCCOc1ccc(S(=O)(=O)N2CCN(CC(=O)OCC)CC2)cc1-c1nc2cc3nc[nH]c3cc2c(=O)[nH]1`, for which the melting point was in the range of 188 to 192 °C.
As for `C=Cc1c(NC(=O)OC(C)(C)C)cccc1[N+](=O)[O-]`, the melting point lay within 120 to 121 °C.
As to `CCOC(=O)NN(CCO)c1ccc(-c2ccc(Cl)cc2)nn1`, the melting point is 152 to 154 °C.
The result for `COC(=O)COc1cccc(OCCC(c2ccccc2)(c2ccccc2)c2ccccc2)c1` reads 103 to 105 °C.
In turn, `N#CSc1c(-c2ccccc2)[nH]c(Cl)c1C#N` came in with a melting point of 159 °C.
Regarding `COc1ccc(N2CCOCC2)c2sc(NC(=O)N3CCC(C)(O)CC3)nc12`, the melting point stood at 236 °C.
Compound `CCCCC(CC)CNCCCOc1ccc2ccccc2c1` (centres undefined) yielded a melting point of 97 °C.
The compound `Cc1cc2c(cc1S(=O)(=O)c1ccc(Cl)cc1)OC(C(=O)O)O2` (centres undefined) displayed a melting point of 169 to 171 °C.
In turn, `COc1cc(Oc2cccc(C(F)(F)F)c2)nc(C(=O)NN=C(C)C)c1` registered a melting point of 134 to 136 °C.
With `N#Cc1ccc(COCCn2cnc3c(N)nc4ccccc4c32)cc1` the figure was 238 to 239 °C; with `CC(=O)N1c2ccc(-c3nnn[nH]3)cc2C(Nc2ccc(Cl)cc2)CC1C` (centres undefined), 190 to 191 °C.
For `Nc1nc(-c2ccccc2)c(-c2ccc(=O)[nH]n2)s1`, the melting point is > 250 °C.
In turn, `O=C(NC1CCCc2c(O)cccc21)c1cccc(Cl)c1O` (centres undefined) had a melting point of 148 to 151 °C.
The result for `O=C(Nc1cccc(-c2ccnc3c(C(=O)c4cccs4)cnn23)c1)c1c(Cl)cccc1Cl` reads 245 to 246 °C; that for `CCC(=O)N1C(=O)OC(C)(C)[C@H]1c1ccccc1`, 60 °C.
